Measurements as given in ChEMBL document CHEMBL1201862, “PubChem BioAssay data set” (2004).
The source made the active and inactive calls.

How the values were obtained:
[1] = biological target: Neurotensin receptor type 1 (Homo sapiens, UniProt P30989); type: functional;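 also: Image-based confirmatory dose-response assay measuring agonist activity at NTR1; NTR1-expressing U2OS osteosarcoma cells imaged for beta-arrestin GFP spot formation; agonist potency where compounds increase beta-arrestin recruitment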
Chain of Neurotensin receptor type 1 (P30989 whole entry): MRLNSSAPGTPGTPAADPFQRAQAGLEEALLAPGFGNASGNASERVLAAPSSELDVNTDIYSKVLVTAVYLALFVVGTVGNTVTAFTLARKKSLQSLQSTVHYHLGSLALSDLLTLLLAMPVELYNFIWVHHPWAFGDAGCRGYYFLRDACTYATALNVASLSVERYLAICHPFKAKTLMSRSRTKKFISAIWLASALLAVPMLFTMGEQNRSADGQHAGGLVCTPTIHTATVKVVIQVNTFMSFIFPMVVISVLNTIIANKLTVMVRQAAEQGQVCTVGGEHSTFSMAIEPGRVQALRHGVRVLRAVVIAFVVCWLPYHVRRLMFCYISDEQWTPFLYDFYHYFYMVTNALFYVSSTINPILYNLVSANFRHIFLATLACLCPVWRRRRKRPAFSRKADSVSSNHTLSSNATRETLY

[2] = biological target: Protein Rev (Human immunodeficiency virus type 1 group M subtype B (isolate HXB2)(HIV-1), UniProt P04618); assay: blockers of HIV Rev/RRE RNA complex – biochemical, fluorescence polarization, HIV-1, dose response (AID 434976); set-up: species or system Human immunodeficiency virus 1
Chain of Protein Rev (P04618 whole entry): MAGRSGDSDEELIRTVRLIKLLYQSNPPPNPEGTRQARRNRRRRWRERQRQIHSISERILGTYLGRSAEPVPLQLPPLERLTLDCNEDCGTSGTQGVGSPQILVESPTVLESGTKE

[3] = biological target: T1, Corticotropin-releasing factor receptor 2/Corticotropin-releasing factor-binding protein (Homo sapiens, UniProt P24387+Q13324); assay: activators of CRF receptor 2 with binding protein – uHTS hits, confirmation (AID 602473); type: functional; settings: read-out: EC50_Mean
T1 sequence (Q13324 whole entry): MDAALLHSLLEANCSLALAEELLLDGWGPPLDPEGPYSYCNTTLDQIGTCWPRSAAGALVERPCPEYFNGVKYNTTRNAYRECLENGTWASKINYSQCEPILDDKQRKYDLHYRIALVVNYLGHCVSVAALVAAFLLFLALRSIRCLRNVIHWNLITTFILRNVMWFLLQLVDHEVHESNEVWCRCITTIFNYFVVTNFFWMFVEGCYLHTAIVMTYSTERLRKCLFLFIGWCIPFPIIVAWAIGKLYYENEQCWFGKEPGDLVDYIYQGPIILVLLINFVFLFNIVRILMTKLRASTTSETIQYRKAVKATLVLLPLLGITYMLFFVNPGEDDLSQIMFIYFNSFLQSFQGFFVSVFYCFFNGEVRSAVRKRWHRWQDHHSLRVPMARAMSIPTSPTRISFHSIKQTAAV
T1 sequence (P24387 whole entry): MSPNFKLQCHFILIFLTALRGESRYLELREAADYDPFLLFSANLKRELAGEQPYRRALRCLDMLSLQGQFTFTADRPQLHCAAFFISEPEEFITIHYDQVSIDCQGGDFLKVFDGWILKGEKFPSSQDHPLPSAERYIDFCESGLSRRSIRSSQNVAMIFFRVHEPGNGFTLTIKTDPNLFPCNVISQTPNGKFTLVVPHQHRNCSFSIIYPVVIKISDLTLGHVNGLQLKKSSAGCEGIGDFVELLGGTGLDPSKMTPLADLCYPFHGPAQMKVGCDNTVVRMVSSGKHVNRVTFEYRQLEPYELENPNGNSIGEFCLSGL

[4] = biological target: Genome polyprotein (dengue virus type 2, UniProt P29990); assay: flavivirus cap methylation enzyme inhibition – biochemical, confirmation dose response, primary screen (AID 588689); type: functional
Chain of Genome polyprotein (P29990 2492-3391 limits assumed): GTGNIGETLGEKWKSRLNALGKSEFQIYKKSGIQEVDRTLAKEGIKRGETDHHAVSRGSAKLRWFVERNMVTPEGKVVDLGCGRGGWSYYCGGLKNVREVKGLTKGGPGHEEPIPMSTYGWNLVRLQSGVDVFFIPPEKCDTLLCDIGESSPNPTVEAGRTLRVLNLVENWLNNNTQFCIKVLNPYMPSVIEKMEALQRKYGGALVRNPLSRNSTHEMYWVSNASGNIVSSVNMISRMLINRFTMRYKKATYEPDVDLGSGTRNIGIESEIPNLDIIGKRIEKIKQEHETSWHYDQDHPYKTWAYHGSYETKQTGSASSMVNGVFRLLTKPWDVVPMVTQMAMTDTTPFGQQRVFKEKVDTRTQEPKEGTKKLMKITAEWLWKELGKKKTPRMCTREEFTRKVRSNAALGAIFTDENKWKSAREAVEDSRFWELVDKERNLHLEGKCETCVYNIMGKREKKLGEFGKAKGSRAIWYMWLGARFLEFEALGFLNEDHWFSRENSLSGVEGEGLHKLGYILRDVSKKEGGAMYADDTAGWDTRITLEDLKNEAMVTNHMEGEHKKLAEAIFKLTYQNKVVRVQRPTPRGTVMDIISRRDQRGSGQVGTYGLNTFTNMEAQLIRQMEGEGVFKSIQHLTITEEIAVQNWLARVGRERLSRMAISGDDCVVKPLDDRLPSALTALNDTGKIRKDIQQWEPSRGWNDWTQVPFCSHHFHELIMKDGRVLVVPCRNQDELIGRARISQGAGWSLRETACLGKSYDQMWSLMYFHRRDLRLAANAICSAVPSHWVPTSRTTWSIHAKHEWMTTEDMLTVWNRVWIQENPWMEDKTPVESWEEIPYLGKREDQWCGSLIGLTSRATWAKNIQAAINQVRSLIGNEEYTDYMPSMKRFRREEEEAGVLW

[5] = biological target: Female germline-specific tumor suppressor gld-1 (Caenorhabditis elegans, UniProt Q17339); assay: blockers of GLD-1/TGE RNA complex formation – biochemical, fluorescence polarization, C. elegans, dose response (AID 2802);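 also: fluorescence polarization of labeled TGE RNA bound by purified gld-1 protein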
Chain of Female germline-specific tumor suppressor gld-1 (Q17339 whole entry): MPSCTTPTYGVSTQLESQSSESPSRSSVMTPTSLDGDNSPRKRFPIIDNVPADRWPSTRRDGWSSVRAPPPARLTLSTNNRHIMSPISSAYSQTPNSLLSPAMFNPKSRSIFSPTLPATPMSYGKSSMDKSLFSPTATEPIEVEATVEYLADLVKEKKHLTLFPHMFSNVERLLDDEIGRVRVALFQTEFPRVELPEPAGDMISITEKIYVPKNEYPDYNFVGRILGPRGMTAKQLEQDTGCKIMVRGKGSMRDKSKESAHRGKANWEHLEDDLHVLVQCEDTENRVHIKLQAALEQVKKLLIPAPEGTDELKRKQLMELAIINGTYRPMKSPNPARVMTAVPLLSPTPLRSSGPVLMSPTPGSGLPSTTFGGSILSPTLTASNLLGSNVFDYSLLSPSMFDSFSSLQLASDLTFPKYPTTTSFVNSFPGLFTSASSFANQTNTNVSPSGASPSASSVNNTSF

[6] = biological target: Intestinal-type alkaline phosphatase (Homo sapiens, UniProt P09923); assay: Dose Response confirmation of uHTS hits from a small molecule inhibitors of human intestinal alkaline phosphatase via a luminescent assay. [Related pubchem assays (depositor defined):AID2544, AID2574]; type: functional
Chain of Intestinal-type alkaline phosphatase (P09923 whole entry): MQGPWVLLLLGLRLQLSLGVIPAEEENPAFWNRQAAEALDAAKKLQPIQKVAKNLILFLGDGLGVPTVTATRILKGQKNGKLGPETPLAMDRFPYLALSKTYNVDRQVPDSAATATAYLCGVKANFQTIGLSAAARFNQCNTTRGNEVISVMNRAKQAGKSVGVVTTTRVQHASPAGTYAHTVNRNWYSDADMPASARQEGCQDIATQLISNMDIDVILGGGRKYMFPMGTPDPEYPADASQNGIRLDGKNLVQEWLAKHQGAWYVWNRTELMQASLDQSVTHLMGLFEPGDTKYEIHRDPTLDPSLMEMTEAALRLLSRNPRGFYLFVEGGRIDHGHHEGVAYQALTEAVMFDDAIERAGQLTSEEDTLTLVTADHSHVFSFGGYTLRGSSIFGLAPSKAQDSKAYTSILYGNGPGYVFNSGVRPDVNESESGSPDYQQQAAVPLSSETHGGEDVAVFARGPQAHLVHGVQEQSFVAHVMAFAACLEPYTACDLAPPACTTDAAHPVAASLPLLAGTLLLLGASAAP

[7] = cells; type: functional, cell-based; settings: HEK-CNG
[8] = biological target: T2, Galanin receptor type 3 (Homo sapiens, UniProt O60755); assay: Fluorescence-based cell-based primary high throughput dose response assay to identify antagonists of the Galanin Receptor 3 (GalR3).; type: functional
T2 sequence (O60755 whole entry): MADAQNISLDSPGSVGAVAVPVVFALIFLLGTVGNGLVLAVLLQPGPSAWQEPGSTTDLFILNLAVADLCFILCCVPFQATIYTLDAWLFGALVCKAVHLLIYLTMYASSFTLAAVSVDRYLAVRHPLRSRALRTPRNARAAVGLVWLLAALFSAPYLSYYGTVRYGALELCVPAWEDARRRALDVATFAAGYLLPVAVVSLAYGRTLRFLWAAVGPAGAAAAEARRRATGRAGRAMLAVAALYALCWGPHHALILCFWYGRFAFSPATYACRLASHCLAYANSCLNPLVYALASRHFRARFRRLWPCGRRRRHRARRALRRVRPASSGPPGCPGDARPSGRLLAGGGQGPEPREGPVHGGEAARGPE

[9] = system: INS1; assay: INS-1E survival protection against cytokine death – cell-based, luminescence, retest, dose response (AID 449756); type: functional; settings: Rattus norvegicus;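 also: cell death triggered by IL-1 beta plus TNF-alpha plus IFN-gamma mixture; protective hits raise ATP signal compared with cytokine alone wells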
[10] = HEK-293T cell viability reduction – luminescence, B-cell screen hits, cytotoxicity control for BCR NF-kB inhibitor project, dose response (AID 489021); type: functional, cell-based;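 also: HEK-293T cells carrying an NF-kB luciferase reporter; cells exposed to compound for about 14 hours before viability readout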
[11] = biological target: Galanin receptor type 2 (Homo sapiens, UniProt O43603); assay: Dose Response cell-based high-throughput screening assay to identify antagonists of galanin receptor 2 (GALR2). [Related pubchem assays: 828, 866 ]; type: functional
Chain of Galanin receptor type 2 (O43603 whole entry): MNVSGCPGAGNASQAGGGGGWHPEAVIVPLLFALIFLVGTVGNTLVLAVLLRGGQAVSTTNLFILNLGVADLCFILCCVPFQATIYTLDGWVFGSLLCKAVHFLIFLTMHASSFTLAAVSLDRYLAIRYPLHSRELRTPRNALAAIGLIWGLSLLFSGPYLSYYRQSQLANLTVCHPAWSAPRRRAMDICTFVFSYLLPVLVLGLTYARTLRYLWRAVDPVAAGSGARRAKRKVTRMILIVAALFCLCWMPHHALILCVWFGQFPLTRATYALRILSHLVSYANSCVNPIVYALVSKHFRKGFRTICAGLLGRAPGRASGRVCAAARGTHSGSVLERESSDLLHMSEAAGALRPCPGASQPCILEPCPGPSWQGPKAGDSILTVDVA

[12] = biological target: Luciferin 4-monooxygenase (Photinus pyralis, UniProt P08659); assay: In vitro luciferase assay using purified luciferase. [Related pubchem assays: 1299, 1270, 1295, 1375, 1287, 1281, 1293, 1291, 1289, 1280, 465, 1364, 1282, 1372, 1365, 1370, 1367, 1366, 1266, 1373, 1292, 1290, 1302, 1371, 1283, 1271, 1294, 1374, 1368, 1369 ]
Chain of Luciferin 4-monooxygenase (P08659 whole entry): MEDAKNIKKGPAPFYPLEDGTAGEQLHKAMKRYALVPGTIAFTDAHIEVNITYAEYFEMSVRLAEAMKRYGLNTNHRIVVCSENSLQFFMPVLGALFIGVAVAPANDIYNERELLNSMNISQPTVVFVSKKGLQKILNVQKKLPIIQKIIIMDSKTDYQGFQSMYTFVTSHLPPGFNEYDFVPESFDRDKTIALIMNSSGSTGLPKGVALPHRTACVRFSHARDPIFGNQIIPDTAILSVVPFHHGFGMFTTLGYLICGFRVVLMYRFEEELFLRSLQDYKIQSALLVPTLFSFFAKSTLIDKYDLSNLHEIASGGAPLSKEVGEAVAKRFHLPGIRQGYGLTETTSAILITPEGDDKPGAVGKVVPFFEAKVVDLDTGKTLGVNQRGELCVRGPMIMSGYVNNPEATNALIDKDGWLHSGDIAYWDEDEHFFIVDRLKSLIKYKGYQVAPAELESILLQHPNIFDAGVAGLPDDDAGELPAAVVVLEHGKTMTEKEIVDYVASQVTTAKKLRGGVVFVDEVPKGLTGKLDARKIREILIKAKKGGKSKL

[13] = system: HEK293; assay: TNF Induced NF-kB Luciferase in 293-NF-kB-Luc Stable Cells. [Related pubchem assays: 1266, 1299, 1269, 1373, 1292, 1290, 1302, 1371, 1283, 1270, 1295, 1271, 1375, 1294, 1374, 1281, 1293, 1291, 1289, 1280, 465, 1368, 1364, 1282, 1372, 1365, 1369, 1370, 1367, 1366 ]; type: functional, cell-based; settings: Homo sapiens
[14] = biological target: T3, Protein RecA (Mycobacterium tuberculosis, UniProt P9WHJ3); assay: Fluorescence Cell-Free Homogeneous Dose Retest to Identify Inhibitors of RecA-Intein Splicing Activity. [Related pubchem assays (depositor defined):AID2097, AID2223, AID489010, AID492950]; type: functional
T3 sequence (P9WHJ3 whole entry): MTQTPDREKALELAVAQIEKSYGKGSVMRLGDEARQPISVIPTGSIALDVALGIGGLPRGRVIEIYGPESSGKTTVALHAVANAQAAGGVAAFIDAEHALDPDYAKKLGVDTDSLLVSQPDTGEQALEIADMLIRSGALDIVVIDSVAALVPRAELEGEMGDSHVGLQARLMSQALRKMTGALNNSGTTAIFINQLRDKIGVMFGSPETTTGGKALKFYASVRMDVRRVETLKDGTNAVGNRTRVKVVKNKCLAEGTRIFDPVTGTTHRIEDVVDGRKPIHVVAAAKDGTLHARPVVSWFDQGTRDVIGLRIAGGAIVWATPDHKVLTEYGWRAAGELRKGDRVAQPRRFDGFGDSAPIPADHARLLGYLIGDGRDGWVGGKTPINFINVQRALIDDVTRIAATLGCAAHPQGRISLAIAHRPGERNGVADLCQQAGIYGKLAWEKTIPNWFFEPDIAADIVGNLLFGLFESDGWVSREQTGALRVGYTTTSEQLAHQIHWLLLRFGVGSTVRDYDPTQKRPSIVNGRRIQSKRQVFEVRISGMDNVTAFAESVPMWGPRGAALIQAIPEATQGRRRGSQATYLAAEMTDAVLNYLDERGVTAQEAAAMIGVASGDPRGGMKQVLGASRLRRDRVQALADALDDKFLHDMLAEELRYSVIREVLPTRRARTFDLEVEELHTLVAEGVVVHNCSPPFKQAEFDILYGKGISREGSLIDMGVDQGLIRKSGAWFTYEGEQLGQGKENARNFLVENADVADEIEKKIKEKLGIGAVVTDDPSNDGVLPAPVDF

[15] = system: HEK293; assay: PMA/Ionomycin induced NF-kB luciferase assay in 293- NF-kB-Luc stable cells. [Related pubchem assays: 1299, 1270, 1295, 1375, 1287, 1281, 1293, 1291, 1289, 1280, 465, 1364, 1282, 1372, 1365, 1370, 1367, 1366, 1269, 1373, 1292, 1290, 1302, 1371, 1283, 1271, 1294, 1374, 1368, 1369 ]; type: functional, cell-based; settings: Homo sapiens
[16] = system: HEK293; assay: EBV LMP1 TES2 canonical NF-kB signalling blockers – cell-based, HEK293, luciferase, cherry-pick, dose response (AID 588343); type: functional; settings: Homo sapiens
[17] = biological target: T4, Replicative DNA helicase DnaB (Mycobacterium tuberculosis, UniProt P9WMR3); assay: DnaB intein splicing inhibitors, dose response, biochemical, cell-free fluorescence (AID 449749); type: functional
T4 sequence (P9WMR3 whole entry): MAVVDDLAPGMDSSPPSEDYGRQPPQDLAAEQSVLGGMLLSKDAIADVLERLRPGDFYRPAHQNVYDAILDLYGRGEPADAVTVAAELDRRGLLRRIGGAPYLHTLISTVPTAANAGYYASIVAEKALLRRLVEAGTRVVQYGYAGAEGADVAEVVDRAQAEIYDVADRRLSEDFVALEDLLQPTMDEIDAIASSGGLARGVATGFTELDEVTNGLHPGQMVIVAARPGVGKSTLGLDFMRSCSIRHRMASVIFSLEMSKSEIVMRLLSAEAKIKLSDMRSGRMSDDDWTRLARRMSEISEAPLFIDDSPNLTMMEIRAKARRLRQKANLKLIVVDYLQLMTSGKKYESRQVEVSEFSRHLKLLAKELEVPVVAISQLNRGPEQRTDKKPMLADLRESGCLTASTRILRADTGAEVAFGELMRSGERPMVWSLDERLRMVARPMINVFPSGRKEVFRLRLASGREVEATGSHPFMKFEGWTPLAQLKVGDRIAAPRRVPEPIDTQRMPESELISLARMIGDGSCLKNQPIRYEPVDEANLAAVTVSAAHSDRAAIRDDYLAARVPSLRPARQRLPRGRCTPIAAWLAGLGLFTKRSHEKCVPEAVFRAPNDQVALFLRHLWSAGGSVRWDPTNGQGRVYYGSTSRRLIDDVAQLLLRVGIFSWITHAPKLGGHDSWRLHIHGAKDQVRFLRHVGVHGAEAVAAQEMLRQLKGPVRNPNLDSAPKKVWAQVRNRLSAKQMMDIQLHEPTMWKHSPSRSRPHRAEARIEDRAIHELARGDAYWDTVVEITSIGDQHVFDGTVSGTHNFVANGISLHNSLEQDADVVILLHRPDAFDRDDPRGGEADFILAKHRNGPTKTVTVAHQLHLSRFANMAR

[18] = system: HEK293; assay: Cytotoxicity assay in HEK293 cells. [Related pubchem assays (depositor defined):AID1266, AID1269, AID1270, AID1271, AID1280, AID1281, AID1282, AID1283, AID1287, AID1289, AID1290, AID1291, AID1292, AID1293, AID1294, AID1295, AID1299, AID1302, AID1364, AID1365, AID1366, AID1367, AID1369, AID1370, AID1371, AID1372, AID1373, AID1374, AID1375, AID1384 …; type: functional, cell-based; settings: Homo sapiens
[19] = biological target: Protein phosphatase methylesterase 1 (Homo sapiens, UniProt Q9Y570); assay: endogenous PME-1 and serine hydrolase inhibition – cell lysate, mouse brain cytosol, FP-rhodamine, gel ABPP, selectivity assay for PME-1 inhibitor project, dose response, panel member PME-1 Assay Panel member description: Inhibition of endogenously expressed PME-1 (AID 2366)
Chain of Protein phosphatase methylesterase 1 (Q9Y570 whole entry): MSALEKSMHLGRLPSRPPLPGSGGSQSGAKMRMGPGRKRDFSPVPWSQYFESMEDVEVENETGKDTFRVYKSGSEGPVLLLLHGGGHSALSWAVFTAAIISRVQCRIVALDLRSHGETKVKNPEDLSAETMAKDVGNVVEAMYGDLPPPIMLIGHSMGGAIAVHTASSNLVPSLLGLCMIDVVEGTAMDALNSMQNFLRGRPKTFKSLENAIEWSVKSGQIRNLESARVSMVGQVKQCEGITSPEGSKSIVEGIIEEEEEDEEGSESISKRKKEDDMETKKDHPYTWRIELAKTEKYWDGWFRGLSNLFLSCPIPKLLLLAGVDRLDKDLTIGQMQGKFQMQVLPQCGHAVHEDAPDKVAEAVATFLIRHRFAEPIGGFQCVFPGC

With `O=C(/C=C\c1ccccc1OC(=O)c1ccccc1F)c1cc2ccccc2o1` the EC50 [1] was 12 µM (active).
With `COc1ccc2nc(N3CCC(O)CC3)c(C#N)cc2c1` the IC50 [2] was 67.6 µM (not active), the EC50 [3] was > 53 µM (inactive) and the IC50 [4] was 59.2 µM (active). For the same molecule, the IC50 [5] was 24.9 µM (inactive) and the IC50 [6] was > 100 µM (inactive).
For `O=S(=O)(NCc1ccncc1)c1ccc(Br)s1`, the EC50 [7] was > 29.9 µM (inactive), the IC50 [8] was 2.06 µM (active) and the AC50 [9] was 2.91 µM (active). The IC50 [10] was > 80 µM (inactive) and the IC50 [11] was > 42 µM (not active).
With `Cc1n[nH]c2c1C(c1c(C)nn(-c3ccccc3)c1Cl)C(C#N)=C(N)O2` (centres undefined) the EC50 [12] was > 8 µM (not active), the EC50 [13] was 1.68 µM (active) and the EC50 [14] was 13.5 µM (active). For the same molecule, the EC50 [15] was 1 µM (active), the AC50 [16] was 7.01 µM (active) and the AC50 [17] was 14 µM (active). For the same molecule, the EC50 [18] was > 8 µM (inactive).
For `Cc1noc(C)c1S(=O)(=O)n1cccc1/C=C(\C#N)S(C)(=O)=O`, the IC50 [19] was > 20 µM (inactive).
